“And” between values parts separate entries of the source, which are not always exact repeats. Equal entries are not always repeated. Where two headings read alike, the source gives them in different places.
How the values were obtained:
sciatic nerve [1] = conditions: 0.1-0.3 mL of 0.25%-0.5% (8.7-17 mM) bupivacaine (Kohane 1998, 1999); cited from earlier work
sciatic nerve [2] = conditions: for % Animals with Effective Block / Duration of Sensory Block: Bupivacaine 1.4 mM with the EC50eff of each CPE, listed as '—' = bupivacaine alone; for Duration of Sensory Block: median; for TTX block duration compared to TTX alone: 30 μM TTX with CPE at the concentration giving maximum percentage of block, p<0.001; for Maximum Block Duration (MBD, minutes): CPE co-injected with 30 μM TTX, 0.3 mL at sciatic nerve, median (25th-75th percentiles); for ECMBD: CPE concentration that caused the maximum prolongation of block from 30 μM TTX; for CPE Concentration: lowest CPE concentration needed to achieve the highest percentage of animals with block, with 30 μM TTX; for EC50: read-out: EC50eff
C2C12 myotubes = conditions: for % Survival: C2C12 myotubes, 2-hour exposure to each CPE at its EC50eff, head 'TTX 30 μm with:', mean ± SD, from FIG. 2
[3] = system: sciatic nerves and surrounding muscle
sciatic nerve [4] = experiment: animal or person; conditions: Rattus norvegicus, read-out: EC50eff (mM)
sciatic nerve [5] = type: in vivo, Sprague-Dawley rats
[6] = EC50eff of each enhancer without TTX, four days after injection, 4 animals per group
[7] = 30 μM TTX with CPE, effective if latency >7 seconds at any point, listed as '—' = TTX alone

| Compound | % Animals with Effective Block (sciatic nerve [2]) | Duration of Sensory Block (sciatic nerve [2]) | % Survival (C2C12 myotubes) | histology: muscle and nerve injury [3, 6] | EC50 (sciatic nerve [4]) | TTX block duration compared to TTX alone (sciatic nerve [2]) | Highest % Animals with Effective Block (sciatic nerve [2]; [7]) | Maximum Block Duration (MBD, minutes) (sciatic nerve [2]; listed as '—' = TTX alone) | ECMBD (sciatic nerve [2]) | CPE Concentration (sciatic nerve [2]) | EC100 min (sciatic nerve [2]; rat, in vivo) | also measured |
| --- | --- | --- | --- | --- | --- | --- | --- | --- | --- | --- | --- | --- |
| CCCCN1CCCCC1C(=O)Nc1c(C)cccc1C (stereo not drawn) [Bupivacaine, bupivacaine, reference compound] | 42% | 0 min |  |  |  |  |  |  |  |  |  | successful blocks (sciatic nerve [1]): > 99% |
| CCCCCCCCCCCC[N+](C)(C)C.[Br-] [DDAB, Dodecyl-trimethyl-ammonium Bromide] | 0% | 0 min | 5 ± 0.2% | moderate to severe infiltration of macrophages and lymphocytes, atrophy and degeneration of muscle fibers, and fibrosis of the tissue | 6 mM | significantly improved TTX block duration | 100% | 606 (452-788) minutes | 8 mM | 6 mM | 1 mM | histology: tissue damage ([3]; 3% (97.3 mM) DDAB, two animals): deep and severe tissue damage, including ischemic necrosis, accompanied by severe and extensive inflammation; histology: muscle and nerve injury ([3]; EC50eff of the enhancers together with 30 μm TTX): severe lymphocytic inflammatory infiltration of muscle with degenerative changes, regenerative changes, and fibrosis; resolution of nerve block (sciatic nerve [2]; 30 μM TTX in 32 mM DDAB): none of those rats' nerve blocks resolved; nerve blockade by CPE alone (sciatic nerve [2]; 32 mM DDAB alone, without TTX, the exception to 'CPE alone did not cause nerve blockade'): with one exception |
| CCCCCCCC[N+](C)(C)C.[Br-] [OTAB, Octyl-trimethyl-ammonium Bromide] | 0% | 0 min | 53 ± 2% | no significant muscle or nerve injury | 30 mM | significantly improved TTX block duration | 100% | 353 (327-361) minutes | 119 mM | 40 mM | 31 mM |  |
| Cc1cccc(C)c1NC(=O)C[N+](C)(C)C [QX-222, 2-((2,6-dimethylphenyl)amino)-N,N,N-trimethyl-2-oxoethanaminium] |  |  |  |  |  |  |  |  |  |  |  | thermal nociceptive and motor blockade of the combination with TTX (sciatic nerve [5]; 25 and 70 mM QX-314 or 70 and 100 mM QX-222 with 30, 40 or 50 μM TTX, FIGS. 5A and B): increased blockade significantly more than the mere cumulative value of the anesthetics alone |
| CC[N+](CC)(CC)CC(=O)Nc1c(C)cccc1C [QX-314, N-(2,6)dimethylphenylcarbamoylmethyl triethylammonium bromide] |  |  |  |  |  |  |  |  |  |  |  | thermal nociceptive and motor blockade of the combination with TTX (sciatic nerve [5]; rat, in vivo): increased blockade significantly more than the mere cumulative value of the anesthetics alone |
| CCCCCCCCCCCCOS(=O)(=O)[O-].[Na+] [SLS, Sodium Dodecyl Sulfate] | 50% | 22 min | 17 ± 11% | no significant muscle or nerve injury | 4 mM | significantly improved TTX block duration | 88% |  | 35 mM | 17 mM |  | EC100 min (sciatic nerve [2]; interpolated concentration of CPE that increased block duration of 30 μM TTX to 100 min): 3 mM |
| CCCCCCCCOS(=O)(=O)[O-].[Na+] [SOS, Sodium Octyl Sulfate] | 25% | 0 min | 5 ± 3% | no significant muscle or nerve injury | 32 mM | significantly improved TTX block duration | 100% | 521 (361-669) minutes | 86 mM | 32 mM | 22 mM |  |
| NC1=N[C@H](O)[C@H]2[C@H]3O[C@]4(O)O[C@@H]([C@@H](O)[C@@]2(N1)[C@@H]4O)[C@]3(O)CO [TTX, tetrodotoxin, reference compound] |  |  |  |  |  |  |  |  |  |  |  | % of animals with sensory blockade (effective nerve block) (sciatic nerve [2]; rat, in vivo): 29% and 29.2%; Highest % Animals with Effective Block (sciatic nerve [2]; rat, in vivo): 29% |
| polysorbate 20 [TW 20] | 25% | 0 min | 94 ± 3% | no significant muscle or nerve injury |  | significantly improved TTX block duration | 100% | 163 (129-206) minutes | 49 mM | 4 mM | 4 mM | C2C12 viability after longer exposure (C2C12 myotubes; CPE at EC50eff, 8-hour exposure / increasing duration of exposure (data not shown)): remained at untreated-control levels; histology: muscle and nerve injury ([3]; Tween 20 at 24.4 and 81.4 mM): progressively worsening (mild to moderate) muscle atrophy and inflammation; EC50 (sciatic nerve [2]; CPE concentration causing half-maximal increase in duration of block (half-MBD) of 30 μM TTX): 3 mM |
| polysorbate 80 [TW 80] | 0% | 0 min | 80 ± 8% | no significant muscle or nerve injury |  | significantly improved TTX block duration | 100% | 120 (111-143) minutes | 81 mM | 81 mM | 40 mM | EC50 (sciatic nerve [2]; rat, in vivo): 34 mM |
